Values joined by “and” are separate entries in the source; they are usually repeats but may differ in a detail not shown here. Equal values may be shown once. “Also recorded” adds a separate entry of the source. Read-outs that look alike come from different tables or passages of the source.
Assays:
[1] = test system: Oct4, cMyc and Sox2-infected Oct4::GFP MEFs; assay: Klf4 replacement: Oct4::GFP+ colonies in Oct4, cMyc, Sox2-infected MEFs; format: cell-based, mouse
Procedure: (§1) Moloney-based retroviral vectors (pMXs) expressing the murine complementary DNAs of Oct4, Sox2, c-Myc, and Klf4 were obtained from Addgene. These plasmids were transfected separately into individual populations of Plat-E packaging cells using Fugene 6, with 27 μl of Fugene 6 and 9 μg of DNA per 10 cm dish of Plat-E cells. Viral supernatants were obtained 48-72 hours post-transfection, filtered through a 0.22 μm filter, diluted 1:1 in MEF growth media, and supplemented with polybrene at a final concentration of 5 μg/ml. The supernatants for the four factors were mixed in an equimolar ratio, and media was used in place of a factor when it was omitted from the infection. MEFs were infected with two to three pools of viral supernatant during a 72-hour period. The first day that viral supernatant was termed “day 1 post-infection.”
On day 4 post-infection, infected MEFs were trypsinized and re-seeded on irradiated feeders in 96-well plates at 2000 cells/well and cultured in mouse ES cell media (Knockout DMEM supplemented with 15% Hyclone FBS, L-glutamine, penicillin/streptomycin, nonessential amino acids, β-mercaptoethanol, and 1000 U/ml LIF). The next day, compound stock solutions diluted in DMSO and, where applicable, VPA (Sigma), were added at a final concentration of 1 μM and 2 mM, respectively. […] Plates were scored for GFP+colonies after 11 of compound treatment. […]

[2] = test system: Oct4, Klf4, cMyc, and Sox2-infected MEFs; assay: Reprogramming efficiency with all four factors; format: cell-based, mouse
Procedure: as §1
(§2) Retroviral infection and compound or antibody treatment was performed as in the original chemical screen. To quantify the numbers of GFP+colonies produced in
(§3) different conditions, the number of colonies in each well was counted and at least 2 different wells were counted and averaged. Concentrations of compounds and antibodies were the following: VPA (Sigma)-2 mM, RepSox (Calbiochem)-25 μM, E-616451 (Calbiochem)-3 μM, EI-275 (Biomol)-3 SB-431542 (Sigma)-25 μM, TgfβIIspecific antibody (R&D Systems, AB-12-NA)-10 μg/ml, pan-Tgβ antibody (R&D Systems, AB-100-NA)-10 μg/ml. Unless otherwise noted, all chemical treatments were continuous from initial administration at day 4-5 post-infection until GFP+colonies were scored. Fresh chemical was added at each media change.

[3] = test system: Tgf-β signaling; conditions: reference 32; cited from earlier work
[4] = test system: MEFs transduced with Oct4, Klf4, and Sox2; assay: cMyc replacement: Oct4::GFP+ colonies in the absence of cMyc; format: cell-based, mouse
Procedure: as §1, §2
different conditions, the number of colonies in each well was counted and at least 2 different wells were counted and averaged. […] Unless otherwise noted, all chemical treatments were continuous from initial administration at day 4-5 post-infection until GFP+colonies were scored. […]

[5] = test system: Nanog; assay: Nanog expression in partially reprogrammed intermediate cell lines; format: cell-based, mouse; conditions: lines OKM 10 and OKMS 7, 48 hours
Procedure: Cells were grown to near confluence on an irradiated layer and RNA was isolated with Trizol (Invitrogen). RNA was amplified and labeled with biotin using the Illumina Total Prep RNA Amplification Kit from Ambion, hybridized to Illumina Whole-Genome Expression BeadChips (MouseRef-8), and analyzed by an Illumina Beadstation 500. All lines were analyzed in biological duplicate or triplicate. Data were processed using Resolver software.

[6] = test system: Oct4, Klf4, and cMyc-infected Oct4::GFP MEFs; assay: Sox2 replacement: Oct4::GFP+ colony formation in Oct4, Klf4, cMyc-infected MEFs; format: cell-based, mouse
Procedure: MEFs were derived from E12.5 embryos hemizygous for the Oct4::GFP transgenic allele. Gonads and internal organs were removed before processing the embryos for MEF isolation. MEFs were grown in DMEM supplemented with 10% FBS and penicillin/streptomycin. Low passage (up to passage 3) MEFs were used for generation of iPS cells.
as §1
(§4) On day 4 post-infection, infected MEFs were trypsinized and re-seeded on irradiated feeders in 96-well plates at 2000 cells/well and cultured in mouse ES cell media (Knockout DMEM supplemented with 15% Hyclone FBS, L-glutamine, penicillin/streptomycin, nonessential amino acids, β-mercaptoethanol, and 1000 U/ml LIF). The next day, compound stock solutions diluted in DMSO and, where applicable, VPA (Sigma), were added at a final concentration of 1 μM and 2 mM, respectively. VPA was removed after 1 week, and compound was re-applied every other day with each media change. Plates were scored for GFP+colonies after 11 of compound treatment.
Infections and VPA/compound addition was done as in the original chemical screen, and wells were scored for GFP+ colonies on day 25 after compound addition.
as §2, §3

[7] = test system: Klf4, cMyc, and Sox2-infected Oct4::GFP MEFs; assay: Oct4 replacement: Oct4::GFP+ colonies in Klf4, cMyc, Sox2-infected MEFs; format: cell-based, mouse
Procedure: as §1, §4
The inventors re-iterated their screen to find small molecules that could replace Oct4 (FIG. 27A). The inventors modified their approach slightly and screened in normal mES culture media containing a higher concentration of VPA (2 mM). After transducing 7500 MEFs with the four reprogramming transgenes and treating with VPA, the inventors observed only ˜125 GFP+ colonies (FIG. 27C). […] Therefore we opted to continue the screen under these conditions.
Following transduction with only Klf4, cMyc, and Sox2, 2000 MEFS were cultured for 25 days in the presence of VPA and each compound from the chemical library (FIG. 27A). […] Additionally, Ropivacaine, a compound that both antagonizes Na^+-channels and that also activates p38 mitogen-activated protein kinase (MAPK)(25)(FIG. 27B), induced more than 10 colonies that had mES-like morphologies, but were not GFP+(FIG. 27C).

[8] = test system: stable Oct4::GFP-negative intermediate cell lines (OKM); assay: Chemical reprogramming of stable intermediate cell lines from Oct4, Klf4, cMyc MEFs; format: cell-based, mouse
Procedure: (§5) Oct4::GFP-negative colonies in Oct4, Klf4, and cMyc or Oct4, Klf4, cMyc, and Sox2-infected MEF cultures were picked, plated on irradiated feeders, and single colonies were picked after 1 week. The resulting cell lines were passaged with trypsin and grown in mES media on feeders until passage 4, at which time they were treated with RepSox (25 μM), AZA (500 μM), or both for 48 hours. Oct4::GFP+colonies were scored 12 days after the beginning of chemical treatment.

[9] = test system: stable Oct4::GFP-negative intermediate cell lines (OKMS); assay: Chemical reprogramming of stable intermediate cell lines from Oct4, Klf4, cMyc, Sox2 MEFs; format: cell-based, mouse
Procedure: as §5

O=C(O)c1cc(NCc2cc(O)ccc2O)ccc1O [HDBA, Lavendustin C]
GFP+ colonies with mES-like morphology in Klf4 replacement screen ([1]; 2000 cells per well, 25 days, scored after 30 days): hit compounds
induction of GFP+ colonies and dependence on VPA ([1]; larger scale validation): both with and without VPA
effect on reprogramming efficiency with all four iPS factors [2]: do not increase the efficiency of reprogramming

NC(=O)c1ccc(-c2nc(-c3ccc4c(c3)OCO4)c(-c3ccccn3)[nH]2)cc1 [SB431542, 4-(5-benzo[1,3]dioxol-5-yl-4-pyridin-2-yl-1H-imidazol-2-yl)-benzamide]
concentration required for complete Tgf-β inhibition [3]: greater than 1 μM
reprogramming efficiency in the absence of cMyc [4]: increased reprogramming efficiency
Nanog expression versus untreated control [5]: strongly increased
effect on reprogramming efficiency with all four iPS factors [2]: do not increase the efficiency of reprogramming
GFP+ colonies per 7500 cells plated ([6]; 25 μM): −10

c1ccc(-c2n[nH]cc2-c2ccnc3ccccc23)nc1 [E-616451, [3-(Pyridin-2-yl)-4-(4-quinoyl)]-1H-pyrazole]
effect on reprogramming efficiency with all four iPS factors [2]: not enhanced; also recorded: do not increase the efficiency of reprogramming
rate of GFP+ colony formation with VPA ([6]; 1500 MEFs, + VPA, E-616452 25 μM, E-616451 3 μM, EI-275 3 μM): comparable to normal retroviral transduction with Sox2
GFP+ colonies with mES-like morphology in primary screen ([6]; 2000 cells per well, compound 1 μM, 2 mM VPA for first 7 days, scored after 16 days): induced GFP+colonies
concentration at which found to be most potent in reprogramming ([6]; E-616451 and EI-275 +VPA): 3 µM
optimal concentration for Oct4::GFP+ colony formation ([6]; compound titration, 2 mM of VPA in all wells (FIG. 7)): greater than 1 μM
GFP+ colonies in the absence of VPA ([6]; no VPA): could not induce the appearance of GFP+colonies

CCCCN1CCCCC1C(=O)Nc1c(C)cccc1C (stereo not drawn) [Bupivacaine]
Oct4::GFP+ colonies in the absence of VPA ([7]; larger scale): independently induced GFP+colonies
effect on reprogramming efficiency with all four iPS factors [2]: not enhanced
effect on reprogramming efficiency with all four iPS factors ([2]; listed as Bupivocaine): do not increase the efficiency of reprogramming

CCCN1CCCC[C@H]1C(=O)Nc1c(C)cccc1C [Ropivacaine]
colonies becoming Oct4::GFP+ after added 5-aza-cytidine ([7]; VPA, then 5-aza-cytidine for 48 hours): majority of these colonies became Oct4::GFP+
formation of GFP+ colonies, dependence on VPA and 5-aza-cytidine ([7]; larger scale): only when used in conjunction with VPA and 5-aza-cytidine
colonies with mES-like morphologies but not GFP+ ([7]; screen with VPA): more than 10
effect on reprogramming efficiency with all four iPS factors [2]: do not increase the efficiency of reprogramming

COC1=C[C@@H]2[C@@H]3Cc4ccc(OC)c(O)c4C2(CCN3C)CC1=O [Sinomenine]
GFP+ colonies in Oct4 replacement screen ([7]; 2000 MEFs, 25 days, VPA 2 mM): induced GFP+colonies
Oct4::GFP+ colonies in the absence of VPA ([7]; larger scale): failed to induce Oct4::GFP+colonies
Oct4::GFP+ colonies in the presence of VPA ([7]; larger scale): induced Oct4::GFP+colonies
effect on reprogramming efficiency with all four iPS factors ([2]; listed as Simomenine): not enhanced
effect on reprogramming efficiency with all four iPS factors ([2]; listed as Sinimonine): do not increase the efficiency of reprogramming

CCCC(CCC)C(=O)O [VPA, valproic acid]
increase in the number of GFP+ colonies over the untreated control [2]: greater than 10 fold
GFP+ colonies per 7500 MEFs in medium with VPA ([2]; four transgenes + VPA): 100-200 and ~125
GFP+ colonies with VPA alone ([6]; 1500 MEFs, VPA only, no Sox2): no GFP+colonies were observed

Nc1ncn([C@@H]2O[C@H](CO)[C@@H](O)[C@H]2O)c(=O)n1 [AZA, 5-aza-cytidine]
lines reprogrammed out of 10 OKM intermediate lines ([8]; 48 hours treatment): none
Oct4::GFP+ colonies in line OKM 10 ([8]; 48 hours, then 14 days culture): Neither chemical induced formation of Oct4::GFP+colonies
Oct4::GFP expression in RepSox-responsive OKMS lines ([9]; 48 hours treatment and 12 subsequent days): none of the RepSox-responsive cell lines expressed Oct4::GFP
lines reprogrammed out of 9 OKMS intermediate lines ([9]; 48 hours treatment at passage 4): one

From patent publication US20120021519A1, “EFFICIENT INDUCTION OF PLURIPOTENT STEM CELLS USING SMALL MOLECULE COMPOUNDS” (PRESIDENTS AND FELLOWS OF HARVARD COLLEGE, priority 2008, published 2012)
